Results reported in ChEMBL document CHEMBL1201862, “PubChem BioAssay data set” (2004).
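A five-concentration, 48-hour dose response in 96-well plates underlies each endpoint, interpolated linearly between surrounding concentrations. At the GI50, growth is halved.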 Activity calls are given as the source filed them. Cut-off read from the data, not from the text of the source: active = GI50 up to about 1.1 µM and inactive = higher.

Legend:
Test in all cases: NCI-60 cell line screen, 48 h
[1] = test system: SR
[2] = test system: HCT-15
[3] = test system: RPMI-8226
[4] = test system: SF-295
[5] = test system: MCF7
[6] = test system: KM12
[7] = test system: PC-3
[8] = test system: Hs-578T
[9] = test system: MDA-MB-231
[10] = test system: T47D
[11] = test system: A549
[12] = test system: SK-MEL-5
[13] = test system: SK-OV-3
[14] = test system: 786-0
[15] = test system: NCI-H460
[16] = test system: HOP-62
[17] = test system: UACC-62
[18] = test system: SF-539
[19] = test system: RXF 393

SMILES	GI50 [1]	GI50 [2] [µM]	GI50 [3]	GI50 [4]	GI50 [5]	GI50 [6]	GI50 [7]	GI50 [8]	GI50 [9]	GI50 [10]	GI50 [11]	GI50 [12]	GI50 [13]	GI50 [14]	GI50 [15]	GI50 [16]	GI50 [17]	GI50 [18]	GI50 [19]
CCCCCCNC(=O)c1cc(C#Cc2cc(OC)ccc2OC)ccc1OC	3.18 µM (inactive)	7.48	8.28 µM (inactive)	51.9 µM (inactive)	> 100 µM (inactive)	> 100 µM (inactive)	62.1 µM (inactive)	> 100 µM (inactive)	> 100 µM (inactive)	2.31 µM (inactive)	> 100 µM (inactive)	19.6 µM (inactive)	> 100 µM (inactive)	> 100 µM (inactive)	8.73 µM (inactive)	–	–	–	–
CCC/N=C1\S/C(=C/c2ccc(OC)c(OC)c2)C(=O)N1c1ccccc1	51.8 µM (inactive)	> 100	43.2 µM (inactive)	11.3 µM (inactive)	> 100 µM (inactive)	> 100 µM (inactive)	43.8 µM (inactive)	9.1 µM (inactive)	20.6 µM (inactive)	> 100 µM (inactive)	42.1 µM (inactive)	37.6 µM (inactive)	11.2 µM (inactive)	13.1 µM (inactive)	61 µM (inactive)	2.84 µM (inactive)	37 µM (inactive)	7.91 µM (inactive)	–
COc1cccc(C2c3cc4c(cc3OC(O)C2C)OCO4)c1OC (stereo not drawn)	2.48 µM (inactive)	2.1	2.13 µM (inactive)	3.26 µM (inactive)	5.28 µM (inactive)	5.04 µM (inactive)	4.49 µM (inactive)	4.46 µM (inactive)	14.2 µM (inactive)	3.36 µM (inactive)	4.02 µM (inactive)	7.14 µM (inactive)	–	3.29 µM (inactive)	3.71 µM (inactive)	17.4 µM (inactive)	13.9 µM (inactive)	11.1 µM (inactive)	3.4 µM (inactive)
Clc1ccc(/C=C/c2nc3ccccc3s2)cc1Cl	> 100 µM (inactive)	> 100	41.7 µM (inactive)	28.1 µM (inactive)	15.1 µM (inactive)	81.1 µM (inactive)	1.69 µM (inactive)	23.7 µM (inactive)	16.2 µM (inactive)	1.66 µM (inactive)	57.8 µM (inactive)	27.2 µM (inactive)	50.1 µM (inactive)	15 µM (inactive)	53.5 µM (inactive)	22.9 µM (inactive)	59.2 µM (inactive)	91.8 µM (inactive)	–
CC(NNC(=O)c1cc[n+]([BH2-]C#N)cc1)c1ccccc1F (stereo not drawn)	> 100 µM (inactive)	> 100	> 100 µM (inactive)	> 100 µM (inactive)	> 100 µM (inactive)	> 100 µM (inactive)	> 100 µM (inactive)	> 100 µM (inactive)	> 100 µM (inactive)	> 100 µM (inactive)	> 100 µM (inactive)	> 100 µM (inactive)	–	> 100 µM (inactive)	> 100 µM (inactive)	–	> 100 µM (inactive)	> 100 µM (inactive)	> 100 µM (inactive)
C/C=C/C=C/c1nc(C#N)c(N)o1	> 100 µM (inactive)	> 100	> 100 µM (inactive)	> 100 µM (inactive)	> 100 µM (inactive)	–	36.6 µM (inactive)	> 100 µM (inactive)	> 100 µM (inactive)	> 100 µM (inactive)	99.3 µM (inactive)	–	> 100 µM (inactive)	> 100 µM (inactive)	–	> 100 µM (inactive)	> 100 µM (inactive)	> 100 µM (inactive)	> 100 µM (inactive)
COC(=O)c1c2c(cc3c1CC1(Cc4cc5c(c(C=O)c4C1)CCCC5)C3)CCCC2 (stereo not drawn)	36.8 µM (inactive)	34.4	> 100 µM (inactive)	> 100 µM (inactive)	27 µM (inactive)	–	40.5 µM (inactive)	29.2 µM (inactive)	32.7 µM (inactive)	45.3 µM (inactive)	33.5 µM (inactive)	71.4 µM (inactive)	> 100 µM (inactive)	> 100 µM (inactive)	–	31.8 µM (inactive)	23.5 µM (inactive)	74.8 µM (inactive)	32.7 µM (inactive)
CN(C)Cc1cc(C(=O)/C=C/c2ccc(O)cc2)cc(CN(C)C)c1O	23.1 µM (inactive)	44.5	17.9 µM (inactive)	86.3 µM (inactive)	43.2 µM (inactive)	24.4 µM (inactive)	47.4 µM (inactive)	60.5 µM (inactive)	25.2 µM (inactive)	49.9 µM (inactive)	> 100 µM (inactive)	18.5 µM (inactive)	–	34.4 µM (inactive)	23.7 µM (inactive)	38 µM (inactive)	36.6 µM (inactive)	55 µM (inactive)	59.8 µM (inactive)
CCCCCCCCCOC(=O)c1cnc(Cl)cn1	49.1 µM (inactive)	17.4	21.9 µM (inactive)	17.6 µM (inactive)	25 µM (inactive)	17.5 µM (inactive)	6.18 µM (inactive)	22.8 µM (inactive)	18.5 µM (inactive)	22.1 µM (inactive)	26.4 µM (inactive)	17.6 µM (inactive)	34.9 µM (inactive)	72.4 µM (inactive)	20.8 µM (inactive)	24 µM (inactive)	18.1 µM (inactive)	25.8 µM (inactive)	–
O=c1[nH]nc(-c2ccccc2)n1/N=C\c1ccccc1	> 100 µM (inactive)	> 100	> 100 µM (inactive)	29 µM (inactive)	> 100 µM (inactive)	> 100 µM (inactive)	> 100 µM (inactive)	> 100 µM (inactive)	> 100 µM (inactive)	> 100 µM (inactive)	> 100 µM (inactive)	> 100 µM (inactive)	–	> 100 µM (inactive)	> 100 µM (inactive)	> 100 µM (inactive)	> 100 µM (inactive)	> 100 µM (inactive)	13.2 µM (inactive)
[O-][S+](C(c1ccccc1)=P(c1ccccc1)(c1ccccc1)c1ccccc1)c1ccc(Cl)cc1 (stereo not drawn)	19.5 µM (inactive)	34.9	6.98 µM (inactive)	33.7 µM (inactive)	17.9 µM (inactive)	14.2 µM (inactive)	23.2 µM (inactive)	19.8 µM (inactive)	19.3 µM (inactive)	7.83 µM (inactive)	–	12.1 µM (inactive)	24.4 µM (inactive)	30.8 µM (inactive)	24.2 µM (inactive)	25.6 µM (inactive)	–	60 µM (inactive)	21.3 µM (inactive)
CCCC[C@@H]1CCN2C[C@@H](O)[C@@H](O)[C@@H]2[C@H]1O	> 100 µM (inactive)	> 100	> 100 µM (inactive)	> 100 µM (inactive)	> 100 µM (inactive)	> 100 µM (inactive)	> 100 µM (inactive)	> 100 µM (inactive)	> 100 µM (inactive)	> 100 µM (inactive)	> 100 µM (inactive)	> 100 µM (inactive)	> 100 µM (inactive)	> 100 µM (inactive)	> 100 µM (inactive)	–	> 100 µM (inactive)	> 100 µM (inactive)	> 100 µM (inactive)
Cc1nc2ccc(NC(=S)Nc3ccccc3)cc2c(=O)n1-c1ccccc1	> 100 µM (inactive)	> 100	23.6 µM (inactive)	> 100 µM (inactive)	> 100 µM (inactive)	> 100 µM (inactive)	> 100 µM (inactive)	> 100 µM (inactive)	> 100 µM (inactive)	> 100 µM (inactive)	–	51.3 µM (inactive)	–	> 100 µM (inactive)	24.2 µM (inactive)	> 100 µM (inactive)	> 100 µM (inactive)	–	> 100 µM (inactive)
COc1ccc(NC(=O)CSc2nnc(-c3ccc(/N=C\c4ccc(Cl)cc4)cc3)o2)cc1	13.3 µM (inactive)	4.78	9.06 µM (inactive)	48.5 µM (inactive)	23.2 µM (inactive)	29.9 µM (inactive)	22 µM (inactive)	77.6 µM (inactive)	34.5 µM (inactive)	21.2 µM (inactive)	> 100 µM (inactive)	27.3 µM (inactive)	51.8 µM (inactive)	37.8 µM (inactive)	> 67.3 µM (inactive)	24.8 µM (inactive)	28.8 µM (inactive)	–	> 69.7 µM (inactive)
CSc1ccc(/C=C/C(=O)c2nc3ccccc3[nH]2)cc1	2.35 µM (inactive)	11.8	3.02 µM (inactive)	24.3 µM (inactive)	2.64 µM (inactive)	14.5 µM (inactive)	12.3 µM (inactive)	37.2 µM (inactive)	10 µM (inactive)	3.95 µM (inactive)	18.2 µM (inactive)	21.2 µM (inactive)	27.5 µM (inactive)	12.7 µM (inactive)	18.4 µM (inactive)	24.3 µM (inactive)	14.2 µM (inactive)	4.45 µM (inactive)	–
CCOC(=O)c1nnsc1NC(=O)NCCCCCCn1c(=O)n(CCCCCCNC(=O)Nc2snnc2C(=O)OCC)c(=O)n(CCCCCCNC(=O)Nc2snnc2C(=O)OCC)c1=O	> 100 µM (inactive)	> 100	11 µM (inactive)	16.9 µM (inactive)	97.3 µM (inactive)	93.3 µM (inactive)	50.9 µM (inactive)	13.7 µM (inactive)	15.2 µM (inactive)	33 µM (inactive)	> 100 µM (inactive)	71.1 µM (inactive)	40.2 µM (inactive)	16.7 µM (inactive)	21.5 µM (inactive)	25.4 µM (inactive)	17.3 µM (inactive)	–	13.5 µM (inactive)
